Experimental data from patent US10954221B2, “GLP-1R agonists and uses thereof” (QILU REGOR THERAPEUTICS INC., priority 2019, dated 2021).

Biological target: GLP1R (Homo sapiens, UniProt P43220)
Assay: GLP1R cAMP assay (HTRF), HEK293/GLP-1R/CRE/Luc, Clone 4
Description: GLP-1R-mediated agonist activity was determined with a cell-based functional assay utilizing an HTRF (Homogeneous Time-Resolved Fluorescence) cAMP detection kit (cAMP Dynamic 2 Assay Kit; CisBio cat #62AM4PEC) that measures cAMP levels in the cell. The method is a competitive immunoassay between native cAMP produced by the cells and exogenous cAMP labeled with the dye d2. The tracer binding is visualized by a mAb anti-cAMP labeled with Cryptate. The specific signal (i.e., energy transfer) is inversely proportional to the concentration of cAMP in either standard or experimental sample.
The human GLP-1R coding sequence (NCBI Reference Sequence NM_002062) was subcloned into pcDNA3.1+/Hygro vector (Invitrogen) and transfected into HEK293/CRE/Luc parental cell line. A cell line stably expressing the receptor was isolated.
Varying concentrations of each compound to be tested (in DMSO) were diluted in DMSO to obtain 200× compound working solution first and then 50 nl compounds were added to a white 384-well assay plate (Greiner 784075) with ECHO. The final DMSO concentration was 0.5%.
Cells were removed from cryopreservation, re-suspended in 5 mL of Dulbecco's Phosphate Buffered Saline (DPBS-Sigma Cat #D8537) and centrifuged at 900×g for 5 min at 22° C. The cell pellet was then re-suspended in 1 mL of assay buffer [DPBS with 500 μM IBMX (Sigma #15879) and 0.1% BSA (Sigma #A1933). IBMX and BSA were freshly added on the day of assay]. A 10 μL sample of the cell suspension was counted on an Invitrogen Countess II to determine cell viability and cell count per mL. The remaining cell suspension was then adjusted with assay buffer to deliver 1000 viable cells per well using a Matrix Combi Multidrop reagent dispenser. 10 μL cell suspensions were added to each well
of the assay plate which already contains compound. The plate was sealed and incubated at 37° C. with 5% CO2 for 30 minutes.
Following the 30 minute incubation, 5 μL of labeled d2 cAMP and 5 μL of anti-cAMP antibody (both diluted 1:20 in cell lysis buffer; as described in the manufacturer's assay protocol) were added to each well of the assay plate. The plates were then incubated at room temperature and after 60 minutes, changes in the HTRF signal were read with an Envision multi-label plate reader using excitation of 330 nm and emissions of 615 and 665 nm. Raw data were converted to nM cAMP by interpolation from a cAMP standard curve (as described in the manufacturer's assay protocol) and the percent effect was determined relative to a saturating concentration of the full agonist GLP-17-37 (10 nM) included on each plate. EC50 determinations were made from agonist dose-response curves analyzed with a curve fitting program using a 4-parameter logistic dose response equation.

Chain of GLP1R (P43220 24-463): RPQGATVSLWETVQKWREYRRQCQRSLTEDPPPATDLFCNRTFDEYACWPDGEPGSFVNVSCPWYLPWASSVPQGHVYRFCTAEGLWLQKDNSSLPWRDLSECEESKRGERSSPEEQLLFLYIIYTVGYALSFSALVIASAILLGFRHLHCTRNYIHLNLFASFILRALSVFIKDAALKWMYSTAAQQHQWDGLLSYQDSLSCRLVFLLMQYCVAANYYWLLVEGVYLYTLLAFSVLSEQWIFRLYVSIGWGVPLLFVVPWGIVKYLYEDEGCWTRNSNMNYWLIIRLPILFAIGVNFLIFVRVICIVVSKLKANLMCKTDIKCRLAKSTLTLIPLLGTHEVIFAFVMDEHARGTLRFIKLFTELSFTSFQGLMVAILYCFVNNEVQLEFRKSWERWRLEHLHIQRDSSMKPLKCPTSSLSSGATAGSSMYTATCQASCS

| Structure (SMILES) | EC50 [nM] |
| --- | --- |
| N#Cc1ccc(COc2cccc(-c3ccc(Cc4nc5ccc(C(=O)O)nc5n4C[C@@H]4CCO4)c(F)c3)n2)c(F)c1 [Compound 282, (S)-2-(4-(6-((4-cyano-2-fluorobenzyl)oxy)pyridin-2-yl)-2-fluorobenzyl)-3-(oxetan-2-ylmethyl)-3H-imidazo[4,5-b]pyridine-5-carboxylic acid] | < 15 |
| N#Cc1ccc(COc2nc(-c3ccc(Cc4nc5ccc(C(=O)O)cc5n4C[C@@H]4CCO4)c(F)c3)ccc2F)c(F)c1 [Compound 264, (S)-2-(4-(6-((4-cyano-2-fluorobenzyl)oxy)-5-fluoropyridin-2-yl)-2-fluorobenzyl)-1-(oxetan-2-ylmethyl)-1H-benzo[d]imidazole-6-carboxylic acid] | < 15 |
| O=C(O)c1ccc2nc(Cc3ccc(-c4cccc(OCc5ccc(F)cc5F)n4)cc3F)n(C[C@@H]3CCO3)c2c1 [Compound 274, (S)-2-(4-(6-((2,4-difluorobenzyl)oxy)pyridin-2-yl)-2-fluorobenzyl)-1-(oxetan-2-ylmethyl)-1H-benzo[d]imidazole-6-carboxylic acid] | < 15 |
| O=C(O)c1ccc2nc(Cc3ccc(-c4ccc(F)c(OCc5ccc(Cl)cc5F)n4)cc3F)n(C[C@@H]3CCO3)c2n1 [Compound 283, (S)-2-(4-(6-(4-chloro-2-fluorobenzyloxy)-5-fluoropyridin-2-yl)-2-fluorobenzyl)-3-(oxetan-2-ylmethyl)-3H-imidazo[4,5-b]pyridine-5-carboxylic acid] | < 15 |
| O=C(O)c1ccc2nc(CN3CC=C(c4csc(OCc5ccc(C(F)(F)F)cc5)n4)CC3)n(C[C@@H]3CCO3)c2c1 [Compound 256, (S)-1-(oxetan-2-ylmethyl)-2-((4-(2-((4-(trifluoromethyl)benzyl)oxy)thiazol-4-yl)-3,6-dihydropyridin-1(2H)-yl)methyl)-1H-benzo[d]imidazole-6-carboxylic acid] | 15 to 150 |
| O=C(O)c1ccc2nc(Cc3ccc(-c4cccc(OCc5ccc(Cl)cc5F)n4)cc3Cl)n(C[C@@H]3CCO3)c2c1 [Compound 258, (S)-2-(2-chloro-4-(6-((4-chloro-2-fluorobenzyl)oxy)pyridin-2-yl)benzyl)-1-(oxetan-2-ylmethyl)-1H-benzo[d]imidazole-6-carboxylic acid] | < 15 |
| O=C(O)c1ccc2nc(CN3CC=C(c4csc(OCc5ccc(C#CC6CC6)cc5F)n4)CC3)n(C[C@@H]3CCO3)c2c1 [Compound 249, (S)-2-((4-(2-((4-(cyclopropylethynyl)-2-fluorobenzyl)oxy)thiazol-4-yl)-3,6-dihydropyridin-1(2H)-yl)methyl)-1-(oxetan-2-ylmethyl)-1H-benzo[d]imidazole-6-carboxylic acid] | 15 to 150 |
| O=C(O)c1ccc2nc(Cc3cc(F)c(-c4ncc(F)c(OCc5ncc(Cl)cc5F)n4)cc3F)n(C[C@@H]3CCO3)c2n1 [Compound 273, (S)-2-(4-(4-((5-chloro-3-fluoropyridin-2-yl)methoxy)-5-fluoropyrimidin-2-yl)-2,5-difluorobenzyl)-3-(oxetan-2-ylmethyl)-3H-imidazo[4,5-b]pyridine-5-carboxylic acid] | < 15 |
| O=C(O)c1ccc2nc(Cc3ccc(-c4cncc(OCc5ccc(Cl)cc5F)n4)cc3F)n(C[C@@H]3CCO3)c2c1 [Compound 265, (S)-2-(4-(6-((4-chloro-2-fluorobenzyl)oxy)pyrazin-2-yl)-2-fluorobenzyl)-1-(oxetan-2-ylmethyl)-1H-benzo[d]imidazole-6-carboxylic acid] | < 15 |
| O=C(O)c1ccc2nc(Cc3ccc(-c4nc(OCc5ccc(Cl)cc5F)ccc4F)cc3F)n(C[C@@H]3CCO3)c2c1 [Compound 92, (S)-2-(4-(6-((4-chloro-2-fluorobenzyl)oxy)-3-fluoropyridin-2-yl)-2-fluorobenzyl)-1-(oxetan-2-ylmethyl)-1H-benzo[d]imidazole-6-carboxylic acid] | < 15 |
| N#Cc1ccc(COc2nc(-c3cc(F)c(Cc4nc5ccc(C(=O)O)cc5n4C[C@@H]4CCO4)cc3F)ncc2F)nc1 [Compound 275, (S)-2-(4-(4-((5-cyanopyridin-2-yl)methoxy)-5-fluoropyrimidin-2-yl)-2,5-difluorobenzyl)-1-(oxetan-2-ylmethyl)-1H-benzo[d]imidazole-6-carboxylic acid] | < 15 |
| O=C(O)c1ccc2nc(CN3CC=C(c4csc(OCc5ccc(Cl)cn5)n4)CC3)n(C[C@@H]3CCO3)c2c1 [Compound 250, (S)-2-((4-(2-((5-chloropyridin-2-yl)methoxy)thiazol-4-yl)-3,6-dihydropyridin-1(2H)-yl)methyl)-1-(oxetan-2-ylmethyl)-1H-benzo[d]imidazole-6-carboxylic acid] | 15 to 150 |
| O=C(O)c1ccc2nc(CN3CC=C(c4csc(OCc5ccc(F)cc5Cl)n4)CC3)n(C[C@@H]3CCO3)c2c1 [Compound 254, (S)-2-((4-(2-((2-chloro-4-fluorobenzyl)oxy)thiazol-4-yl)-3,6-dihydropyridin-1(2H)-yl)methyl)-1-(oxetan-2-ylmethyl)-1H-benzo[d]imidazole-6-carboxylic acid] | 15 to 150 |

Further lines, results first:

| EC50 [nM] | Structure (SMILES) |
| --- | --- |
| 15 to 150 | O=C(O)c1ccc2nc(CC3CCC(c4cccc(OCc5ccc(Cl)cc5F)n4)CC3)n(C[C@@H]3CCO3)c2c1 (stereo partly drawn) [Compound 319, (S)-2-((4-(6-((4-chloro-2-fluorobenzyl)oxy)pyridin-2-yl)cyclohexyl)methyl)-1-(oxetan-2-ylmethyl)-1H-benzo[d]imidazole-6-carboxylic acid] |
| 150 to 1000 | O=C(O)c1ccc2nc(C=C3CCN(c4cccc(OCc5ccc(F)cc5F)n4)CC3)n(C[C@@H]3CCO3)c2n1 [Compound 315, (S)-2-((1-(6-(2,4-difluorobenzyloxy)pyridin-2-yl)piperidin-4-ylidene)methyl)-3-(oxetan-2-ylmethyl)-3H-imidazo[4,5-b]pyridine-5-carboxylic acid] |
| 15 to 150 | N#Cc1ccc(COc2cccc(-c3ccn(Cc4nc5ccc(C(=O)O)nc5n4C[C@@H]4CCO4)c(=O)c3)n2)c(F)c1 [Compound 324, (S)-2-((6-((4-cyano-2-fluorobenzyl)oxy)-2′-oxo-[2,4′-bipyridin]-1′(2′H)-yl)methyl)-3-(oxetan-2-ylmethyl)-3H-imidazo[4,5-b]pyridine-5-carboxylic acid] |
| < 15 | Cc1cc(-c2cccc(OCc3ccc(Cl)cc3F)n2)ccc1Cc1nc2ccc(C(=O)O)cc2n1C[C@@H]1CCO1 [Compound 295, (S)-2-(4-(6-((4-chloro-2-fluorobenzyl)oxy)pyridin-2-yl)-2-methylbenzyl)-1-(oxetan-2-ylmethyl)-1H-benzo[d]imidazole-6-carboxylic acid] |
| < 15 | O=C(O)c1ccc2nc(Cc3cc(F)c(-c4cccc(OCc5ncc(F)cc5F)n4)cc3F)n(C[C@@H]3CCO3)c2n1 [Compound 297, (S)-2-(4-(6-((3,5-difluoropyridin-2-yl)methoxy)pyridin-2-yl)-2,5-difluorobenzyl)-3-(oxetan-2-ylmethyl)-3H-imidazo[4,5-b]pyridine-5-carboxylic acid] |
| < 15 | N#Cc1ccc(COc2cccc(N3CCC(=Cc4nc5ccc(C(=O)O)cc5n4C[C@@H]4CCO4)CC3)n2)c(F)c1 [Compound 317, (S)-2-((1-(6-((4-cyano-2-fluorobenzyl)oxy)pyridin-2-yl)piperidin-4-ylidene)methyl)-1-(oxetan-2-ylmethyl)-1H-benzo[d]imidazole-6-carboxylic acid] |
| < 15 | O=C(O)c1ccc2nc(Cc3ccc(-c4nc(OCc5ccc(Cl)cc5F)c(F)cc4F)c(F)c3)n(C[C@@H]3CCO3)c2n1 [Compound 306, (S)-2-(4-(6-((4-chloro-2-fluorobenzyl)oxy)-3,5-difluoropyridin-2-yl)-3-fluorobenzyl)-3-(oxetan-2-ylmethyl)-3H-imidazo[4,5-b]pyridine-5-carboxylic acid] |
| 15 to 150 | N#Cc1ccc(COc2cccc(N3CCC(=Cc4nc5ccc(C(=O)O)nc5n4C[C@@H]4CCO4)CC3)n2)nc1 [Compound 316, (S)-2-((1-(6-((5-cyanopyridin-2-yl)methoxy)pyridin-2-yl)piperidin-4-ylidene)methyl)-3-(oxetan-2-ylmethyl)-3H-imidazo[4,5-b]pyridine-5-carboxylic acid] |
| < 15 | O=C(O)c1ccc2nc(Cc3ccc(-c4cccc(OCc5ccc(-n6ccnc6)cc5)n4)cc3F)n(C[C@@H]3CCO3)c2n1 [Compound 304, (S)-2-(4-(6-((4-(1H-imidazol-1-yl)benzyl)oxy)pyridin-2-yl)-2-fluorobenzyl)-3-(oxetan-2-ylmethyl)-3H-imidazo[4,5-b]pyridine-5-carboxylic acid] |
| < 15 | N#Cc1ccc(COc2nc(-c3cc(F)c(Cc4nc5ccc(C(=O)O)c(F)c5n4C[C@@H]4CCO4)cc3F)ncc2F)nc1 [Compound 313, (S)-2-(4-(4-((5-cyanopyridin-2-yl)methoxy)-5-fluoropyrimidin-2-yl)-2,5-difluorobenzyl)-7-fluoro-1-(oxetan-2-ylmethyl)-1H-benzo[d]imidazole-6-carboxylic acid] |
| 15 to 150 | O=C(O)c1ccc2nc(CN3CC=C(c4cccnc4OCc4ccc(Cl)cc4F)CC3)n(C[C@@H]3CCO3)c2c1 [Compound 329, (S)-2-((2-((4-chloro-2-fluorobenzyl)oxy)-3′,6′-dihydro-[3,4′-bipyridin]-1′(2′H)-yl)methyl)-1-(oxetan-2-ylmethyl)-1H-benzo[d]imidazole-6-carboxylic acid] |
| 15 to 150 | N#Cc1ccc(COc2nc(-c3ccn(Cc4nc5ccc(C(=O)O)nc5n4C[C@@H]4CCO4)c(=O)c3)ncc2F)c(F)c1 [Compound 325, (S)-2-((4-(4-((4-cyano-2-fluorobenzyl)oxy)-5-fluoropyrimidin-2-yl)-2-oxopyridin-1(2H)-yl)methyl)-3-(oxetan-2-ylmethyl)-3H-imidazo[4,5-b]pyridine-5-carboxylic acid] |
| 15 to 150 | N#Cc1ccc(COc2cccc(C3=CCN(Cc4nc5ccc(B(O)O)cc5n4C[C@@H]4CCO4)CC3)n2)c(F)c1 [Compound 328, (S)-(2-((6-((4-cyano-2-fluorobenzyl)oxy)-3′,6′-dihydro-[2,4′-bipyridin]-1′(2′H)-yl)methyl)-1-(oxetan-2-ylmethyl)-1H-benzo[d]imidazol-6-yl)boronic acid] |
